In US20230210867A1, “TREATMENT OF ADJUSTMENT DISORDERS” (VISTAGEN THERAPEUTICS, INC., priority 2020, published 2023):

Assays:
[1] = test system: Adjustment Disorder with Anxiety (AjDA) symptoms in adults; assay: Phase 2A clinical trial of PH94B neuroactive nasal spray in Adjustment Disorder with Anxiety (AjDA); assay type: in vivo, human; conditions: adult subjects with AjDA, compared to placebo
Description: A clinical trial is designed and conducted to evaluate the efficacy, safety and tolerability of daily administration of PH94B neuroactive nasal spray (Example 1) as a treatment of Adjustment Disorder with Anxiety (AjDA) symptoms in adults, associated with identifiable stressors related to the COVID-19 pandemic. Subject are confirmed with current diagnoses of this condition as defined in the Diagnostic and Statistical Manual of Mental Disorders, 5th Edition (DSM-5).
The PH94B study drug is delivered intranasally with the nozzle of the applicator positioned in the nasal vestibule and directed toward the midline (medial part or nasal septum). In order to administer study medication, the actuator (pusher) should be depressed.
Prior to the use of a new study medication bottle, the subject is instructed to shake the bottle five times and to prime the bottle by depressing the actuator five times. […]
1. Individual subject improvement as assessed by the Sheehan Disability Scale (SDS) at the end of week 4 of treatment with PH94B compared to placebo.
2. Individual subject improvement as assessed by the Clinical Global Impression-Improvement rating (CGI-I). […]
3. Individual subject improvement as assessed by the subject's self-assessment of improvement (PGI-C) at the end of week 4 of treatment with PH94B compared to placebo. […]

[2] = all clinical studies to date; cited from earlier work
[3] = test system: symptoms of social anxiety disorder (SAD); conditions: earlier clinical studies; cited from earlier work

C[C@@]12C=CC[C@H]1[C@@H]1CCC3=C[C@@H](O)CC[C@]3(C)[C@H]1CC2 [PH94B, [3β]-androsta-4,16-dien-3-ol]
anxiety levels as measured by the Hamilton Anxiety Scale (HAM-A) ([1]; 3.2 μg intranasal four times per day, four weeks): statistically significant reduction in anxiety levels | secondary endpoints (SDS, CGI-I, PGI-C, ADNM) ([1]; end of week 4 of treatment): statistically significant improvement | safety in clinical studies [2]: safe | efficacy in treating symptoms of social anxiety disorder (SAD) [3]: significant efficacy
